Legend:
Type in all cases: physicochemical
[1] = Angle of repose (PE 2.9.36); conditions: mixing time 5 minutes
Experimental: (§1) A. Funnel Flow and Angle of Repose (PE 2.9.16-2.9.36)
(§2) The tests were performed on an Erweka® flow tester on all of the raw materials and mixtures tested using a standardized funnel. The tests performed on the raw materials were carried out on 100 g of powder, and on 20 g for mixtures (batches A, F, G, H, I, J).
Determination of the angle of repose was performed on the powders alone and on the mixtures, as defined in the European Pharmacopeia. Different mixing times of 5, 10 and 30 minutes were tested on the mixtures (batches of F to J) to determine the influence of the mixing time on the flow (Table IV).

[2] = Tapped density (volumenometer, PE 2.9.34); conditions: after tamping; for Hausner ratio: criterion <1.20; for Carr index: criterion <20%
Experimental: B. Tapped Density (PE 2.9.34)
The tests were performed on a volumenometer (Erweka® GmbH SVM12). The Carr and Hausner indices can be determined by this test. The tests performed on the raw materials were carried out on 100 g of powder, and on 20 g for mixtures (batches A, F, G, H, I, J).

[3] = Funnel flow (Erweka flow tester, PE 2.9.16); conditions: standardized funnel; 100 g raw materials, 20 g mixtures
Experimental: as §1, §2

[4] = Laser diffraction granulometry (dry mode, Mastersizer S)
Experimental: Laser Diffraction Granulometry (European Pharmacopeia (PE), Current Edition, 2.9.31)
Analysis of the granulometric distribution was performed in dry mode on a Mastersizer S laser granulometer (Malvern®). The detection range of this instrument in dry mode is from 0.05 μm to 900 μm. This study was performed on 20 g of active principle, at a pressure of 1, 2 and 3 bar. Each test was performed 3 times for each pressure.

| Angle of repose [1] [°] | Angle of repose, Interpretation [1] | Carr index, interpretation [2] | Compactibility (V10-V500) [2] [mL] | Hausner ratio, interpretation [2] | Hausner ratio [2] | Carr index [2] [%] | Flow [3] | d50 ([4]; dry mode) [μm] | particle size ([4]; dry mode, 1, 2 and 3 bar) | Compound |
| --- | --- | --- | --- | --- | --- | --- | --- | --- | --- | --- |
| 43.6 | Passable | Excellent | 9 | Excellent | 1.10 | 9.05 | 9.6 s | – | – | OC[C@@H](O)[C@@H](O)[C@H](O)[C@@H](O)CO [Batch E, Sorbitol] |
| 38.3 | Quite | Excellent | 0 | Excellent | 1.02 | 7.48 | 27.1 s | – | – | OC[C@@H](O)[C@@H](O)[C@H](O)[C@H](O)CO [Batch Q, Mannitol] |

Further lines, the compound ahead of its results:

| Compound | Angle of repose [1] [°] | Angle of repose, Interpretation [1] | Carr index, interpretation [2] | Compactibility (V10-V500) [2] [mL] | Hausner ratio, interpretation [2] | Hausner ratio [2] | Carr index [2] [%] | Flow [3] | d50 ([4]; dry mode) [μm] | particle size ([4]; dry mode, 1, 2 and 3 bar) |
| --- | --- | --- | --- | --- | --- | --- | --- | --- | --- | --- |
| OC[C@H]1O[C@@](CO)(O[C@H]2O[C@H](CO)[C@@H](O)[C@H](O)[C@H]2O)[C@@H](O)[C@@H]1O [Batch D, Sucrose] | 40.5 | Quite | Excellent | 3 | Excellent | 1.10 | 8.70 | 22 s | – | – |
| Cc1ncc(COP(=O)(O)O)c(C=O)c1O [Batch A, Pyridoxal-5-phosphate] | – | – | – | – | – | – | – | no flow | 11 | below 100 μm |
| Isomalt [Batch C] | 45 | Passable | Good | 8 | Good | 1.13 | 11.25 | 23.8 s | – | – |
